# Assay results: US10829473B2, “Modulators of the cystic fibrosis transmembrane conductance regulator protein and methods of use” (AbbVie Overseas S.Á.R.L., priority 2017, dated 2020)
# Read-outs that look alike come from different tables or passages of the source. Marks after values point to notes of the source that are not given here.
# Biological target: T1, F508delCFTR (Homo sapiens, UniProt P13569, DEL508-508)
# T1 construct: expressed in transfected cells; host or cells: CFBE41o- human lung derived epithelial cells (CFBE41o-F508delCFTR-HRP), doxycycline-inducible
# T1 sequence (P13569 with tags, fused parts or gaps DEL508-508): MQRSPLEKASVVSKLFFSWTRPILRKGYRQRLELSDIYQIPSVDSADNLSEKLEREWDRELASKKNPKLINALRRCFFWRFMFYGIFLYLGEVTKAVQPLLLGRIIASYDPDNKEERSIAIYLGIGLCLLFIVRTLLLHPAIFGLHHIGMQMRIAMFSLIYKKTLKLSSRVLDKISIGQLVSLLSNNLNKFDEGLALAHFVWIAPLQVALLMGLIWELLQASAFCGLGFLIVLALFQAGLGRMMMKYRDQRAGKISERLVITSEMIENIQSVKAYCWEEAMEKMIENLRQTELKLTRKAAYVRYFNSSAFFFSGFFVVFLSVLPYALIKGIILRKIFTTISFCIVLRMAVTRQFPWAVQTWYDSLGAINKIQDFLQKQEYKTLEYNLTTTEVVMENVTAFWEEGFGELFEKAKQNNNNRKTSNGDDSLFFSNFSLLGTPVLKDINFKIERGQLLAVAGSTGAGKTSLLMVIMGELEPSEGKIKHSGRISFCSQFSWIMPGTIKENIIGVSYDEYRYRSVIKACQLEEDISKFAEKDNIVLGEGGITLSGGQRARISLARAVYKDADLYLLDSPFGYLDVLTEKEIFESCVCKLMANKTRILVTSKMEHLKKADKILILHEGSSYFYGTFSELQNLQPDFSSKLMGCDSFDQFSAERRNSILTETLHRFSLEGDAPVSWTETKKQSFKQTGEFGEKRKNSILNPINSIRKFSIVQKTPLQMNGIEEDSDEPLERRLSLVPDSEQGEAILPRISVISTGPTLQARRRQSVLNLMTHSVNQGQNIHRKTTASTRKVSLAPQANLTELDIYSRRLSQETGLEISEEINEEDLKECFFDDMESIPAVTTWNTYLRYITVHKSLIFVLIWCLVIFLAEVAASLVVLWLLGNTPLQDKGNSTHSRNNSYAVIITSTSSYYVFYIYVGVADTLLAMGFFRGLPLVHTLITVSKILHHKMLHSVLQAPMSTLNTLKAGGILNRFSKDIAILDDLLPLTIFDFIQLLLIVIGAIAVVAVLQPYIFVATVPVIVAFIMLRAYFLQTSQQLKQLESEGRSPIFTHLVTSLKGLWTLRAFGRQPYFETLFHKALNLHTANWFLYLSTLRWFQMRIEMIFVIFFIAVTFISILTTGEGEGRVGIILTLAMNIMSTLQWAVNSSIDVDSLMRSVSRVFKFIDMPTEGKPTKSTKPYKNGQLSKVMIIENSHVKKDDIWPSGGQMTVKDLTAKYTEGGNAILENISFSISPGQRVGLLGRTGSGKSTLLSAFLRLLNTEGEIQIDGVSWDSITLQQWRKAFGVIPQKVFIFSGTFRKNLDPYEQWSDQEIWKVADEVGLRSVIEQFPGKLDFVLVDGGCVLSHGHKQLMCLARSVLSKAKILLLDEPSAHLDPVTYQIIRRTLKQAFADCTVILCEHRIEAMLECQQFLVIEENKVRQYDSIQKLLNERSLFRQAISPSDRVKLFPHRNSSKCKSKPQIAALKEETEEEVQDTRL
# Assay: Cell Surface Expression-Horse Radish Peroxidase (CSE-HRP) Assay;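 for EC50 (with co-corrector): co-corrector chromenyl benzoic acid corrector at 2 or 3 µM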;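 for Maximum % activity (without co-corrector): % of on-plate positive control chromenyl benzoic acid corrector at 2 or 3 µM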
# Type: cell-based
# Conditions: for Maximum % activity (with co-corrector) / Emax: maximum at any tested concentration; for Emax: read-out: Maximum % activity (without co-corrector)
# Method in brief: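 Corrector compounds were given as 8-point 3-fold series from 20 or 30 μM, with or without a 2 μM co-corrector, for 18-24 h at 33 °C. Surface HRP was read by luminol luminescence as % of positive control; variable-Hill-slope sigmoidal fitting gave EC50 from triplicate plates.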
# [1] = test compound with co-corrector
# [2] = test compound without co-corrector
# [3] = test compound with co-corrector, read-out: EC50 (with co-corrector)
# [4] = test compound without co-corrector, read-out: EC50 (without co-corrector)
# [5] = test compound alone, without co-corrector, read-out: EC50 (without co-corrector)
# [6] = with co-corrector, read-out: EC50 (with co-corrector)
smiles,measurement,setting,value
O=C(NS(=O)(=O)c1cccc2ccccc12)C1(c2ccc(C(F)(F)F)nc2Cl)CC1 [GIII-21],EC50 (with co-corrector),[1],++^a
same,Maximum % activity (with co-corrector),[1],++ (≥150 and <350)
same,EC50 (without co-corrector),[2],++^a
same,Emax,[2],50 to 150%
COc1cc(C2(C(=O)NS(=O)(=O)c3cccc4nc(C)ccc34)CC2)c(OC(F)F)cn1 [GIII-22],EC50 (with co-corrector),[1],++^a
same,Maximum % activity (with co-corrector),[1],++ (≥150 and <350)
same,EC50 (without co-corrector),[2],++^a
same,Emax,[2],50 to 150%
CCc1cnc(N2CCOCC2)c(C2(C(=O)NS(=O)(=O)c3cccc4ncccc34)CC2)c1 [GIII-23],Maximum % activity (with co-corrector),[1],++ (≥150 and <350)
same,EC50,[3],> 10 µM
same,Emax,[2],50 to 150%
same,EC50,[4],> 10 µM
COc1ncc(C2(C(=O)NS(=O)(=O)c3cccc4ncccc34)CC2)c(OC)n1 [GIII-24],Maximum % activity (with co-corrector),[1],+ (<150)
same,EC50,[3],> 10 µM
same,Emax,[2],< 50%
same,EC50,[4],> 10 µM
O=C(NS(=O)(=O)c1cccc2ncccc12)C1(c2cc(C3CC3)cnc2N2CCOCC2)CC1 [GIII-25],EC50 (with co-corrector),[1],++^a
same,Maximum % activity (with co-corrector),[1],++ (≥150 and <350)
same,EC50 (without co-corrector),[2],++^a
same,Emax,[2],50 to 150%
Cc1cnc(N2CCN(C)CC2)c(C2(C(=O)NS(=O)(=O)c3cccc4ncccc34)CC2)c1 [GIII-26],Maximum % activity (with co-corrector),[1],++ (≥150 and <350)
same,EC50,[3],> 10 µM
same,Emax,[2],< 50%
same,EC50,[4],> 10 µM
O=C(NS(=O)(=O)c1cccc2c1CCCN2)C1(c2ccc(C(F)(F)F)nc2Cl)CC1 [GIII-28],Maximum % activity (with co-corrector),[1],++ (≥150 and <350)
same,EC50,[3],> 10 µM
same,Emax,[2],< 50%
same,EC50,[4],> 10 µM
O=C(NS(=O)(=O)c1cccc2ncccc12)C1(c2ccc(C(F)(F)F)nc2Cl)CC1 [GIII-29],Maximum % activity (with co-corrector),[1],+ (<150)
same,EC50,[3],> 10 µM
same,Emax,[2],< 50%
same,EC50,[4],> 10 µM
COc1nc(N)ccc1C1(C(=O)NS(=O)(=O)c2cccc3ncccc23)CC1 [GIII-30],EC50 (with co-corrector),[1],++^a
same,Maximum % activity (with co-corrector),[1],+ (<150)
same,Emax,[2],< 50%
same,EC50,[4],> 10 µM
CN1CCN(c2ncc(C3CCC3)cc2C2(C(=O)NS(=O)(=O)c3cccc4ncccc34)CC2)CC1 [GIII-31],Maximum % activity (with co-corrector),[1],+ (<150)
same,EC50,[3],> 10 µM
same,Emax,[2],< 50%
same,EC50,[4],> 10 µM
Cc1ccc2c(S(=O)(=O)NC(=O)C3(c4cc(C5CCC5)cnc4N4CCN(C)CC4)CC3)cccc2n1 [GIII-32],Maximum % activity (with co-corrector),[1],+ (<150)
same,EC50,[3],> 10 µM
same,Emax,[2],< 50%
same,EC50,[4],> 10 µM
CCc1cnc(N2CCN(C)CC2)c(C2(C(=O)NS(=O)(=O)c3cccc4ncccc34)CC2)c1 [GIII-33],Maximum % activity (with co-corrector),[1],+ (<150)
same,EC50,[3],> 10 µM
same,Emax,[2],< 50%
same,EC50,[4],> 10 µM
O=C(NS(=O)(=O)c1cccc2ncccc12)C1(c2cc(Cl)cnc2F)CC1 [GIII-34],Maximum % activity (with co-corrector),[1],+ (<150)
same,EC50,[3],> 10 µM
same,Emax,[2],< 50%
same,EC50,[4],> 10 µM
CC(C)Oc1ncc(CO)cc1C1(C(=O)NS(=O)(=O)c2cccc3ncccc23)CC1 [GIII-35],Maximum % activity (with co-corrector),[1],+ (<150)
same,EC50,[3],> 10 µM
same,Emax,[2],< 50%
same,EC50,[4],> 10 µM
CN1CCN(c2ncc(C3CC3)cc2C2(C(=O)NS(=O)(=O)c3cccc4[nH]ccc34)CC2)CC1 [GIII-36],Maximum % activity (with co-corrector),[1],+ (<150)
same,EC50,[3],> 10 µM
same,Emax,[2],< 50%
same,EC50,[4],> 10 µM
COc1cccc(C2(C(=O)NS(=O)(=O)c3cccc4ccccc34)CC2)c1 [II-1],EC50,[5],3 to 10 µM
same,Maximum % activity (with co-corrector),with co-corrector,+++ (≥350)
same,EC50,[6],3 to 10 µM
same,Emax,without co-corrector,> 150%
COc1cc(C2(C(=O)NS(=O)(=O)c3cccc4ccccc34)CC2)ccc1C [II-2],EC50,[5],3 to 10 µM
same,Maximum % activity (with co-corrector),with co-corrector,+++ (≥350)
same,EC50,[6],3 to 10 µM
same,Emax,without co-corrector,> 150%
O=C(NS(=O)(=O)c1cccc2ncccc12)C1(c2ccccc2OC(F)(F)F)CCC1 [II-3],EC50,[5],3 to 10 µM
same,Maximum % activity (with co-corrector),with co-corrector,+++ (≥350)
same,EC50,[6],< 3 µM
same,Emax,without co-corrector,> 150%
CCn1nc(C)cc1C1(C(=O)NS(=O)(=O)c2cccc3ccccc23)CC1 [II-4],EC50,[5],3 to 10 µM
same,Maximum % activity (with co-corrector),with co-corrector,+++ (≥350)
same,EC50,[6],3 to 10 µM
same,Emax,without co-corrector,50 to 150%
CCn1nc(C2(C(=O)NS(=O)(=O)c3cccc4ccccc34)CC2)cc1C [II-5],EC50,[5],3 to 10 µM
same,Maximum % activity (with co-corrector),with co-corrector,++ (≥150 and <350)
same,EC50,[6],3 to 10 µM
same,Emax,without co-corrector,< 50%
COc1ccccc1C1(C(=O)NS(=O)(=O)c2cccc3ncccc23)CCC1 [II-6],EC50,[5],3 to 10 µM
same,Maximum % activity (with co-corrector),with co-corrector,+++ (≥350)
same,EC50,[6],< 3 µM
same,Emax,without co-corrector,> 150%
COc1ncc(C(F)(F)F)cc1C1(C(=O)NS(=O)(=O)c2cccc3ncccc23)CC1 [II-7],EC50,[5],3 to 10 µM
same,Maximum % activity (with co-corrector),with co-corrector,+++ (≥350)
same,EC50,[6],< 3 µM
same,Emax,without co-corrector,> 150%
COc1ncc(C(F)(F)F)cc1C1(C(=O)NS(=O)(=O)c2cccc3c2CCCN3)CC1 [II-8],EC50,[5],3 to 10 µM
same,Maximum % activity (with co-corrector),with co-corrector,+++ (≥350)
same,EC50,[6],< 3 µM
same,Emax,without co-corrector,> 150%
COc1ncc(C(F)(F)F)cc1C1(C(=O)NS(=O)(=O)c2cccc3nc(C)ccc23)CC1 [II-9],EC50,[5],3 to 10 µM
same,Maximum % activity (with co-corrector),with co-corrector,+++ (≥350)
same,EC50,[6],< 3 µM
same,Emax,without co-corrector,> 150%
COc1ncc(C)cc1C1(C(=O)NS(=O)(=O)c2cccc3c2CCCN3)CC1 [II-10],EC50,[5],3 to 10 µM
same,Maximum % activity (with co-corrector),with co-corrector,+++ (≥350)
same,EC50,[6],3 to 10 µM
same,Emax,without co-corrector,> 150%
COc1ncc(C2CCC2)cc1C1(C(=O)NS(=O)(=O)c2cccc3ncn(C)c23)CC1 [II-12],EC50,[5],3 to 10 µM
same,Maximum % activity (with co-corrector),with co-corrector,+++ (≥350)
same,EC50,[6],< 3 µM
same,Emax,without co-corrector,> 150%
COc1ncc(C2CCC2)cc1C1(C(=O)NS(=O)(=O)c2cccc3cnn(C)c23)CC1 [II-13],EC50,[5],< 3 µM
same,Maximum % activity (with co-corrector),with co-corrector,+++ (≥350)
same,EC50,[6],< 3 µM
same,Emax,without co-corrector,> 150%
COc1ncc(C2CCC2)cc1C1(C(=O)NS(=O)(=O)c2cccc3c2ccn3C)CC1 [II-14],EC50,[5],< 3 µM
same,Maximum % activity (with co-corrector),with co-corrector,+++ (≥350)
same,EC50,[6],< 3 µM
same,Emax,without co-corrector,> 150%
COc1ncc(C2CCC2)cc1C1(C(=O)NS(=O)(=O)c2cccc3[nH]ncc23)CC1 [II-15],EC50,[5],3 to 10 µM
same,Maximum % activity (with co-corrector),with co-corrector,+++ (≥350)
same,EC50,[6],< 3 µM
same,Emax,without co-corrector,> 150%
COc1ncc(C2CCC2)cc1C1(C(=O)NS(=O)(=O)c2cccc3ncc(C)n23)CC1 [II-16],EC50,[5],3 to 10 µM
same,Maximum % activity (with co-corrector),with co-corrector,+++ (≥350)
same,EC50,[6],< 3 µM
same,Emax,without co-corrector,> 150%
COc1ncc(C(F)(F)F)cc1C1(C(=O)NS(=O)(=O)c2cccc3ccn(C)c23)CC1 [II-17],EC50,[5],< 3 µM
same,Maximum % activity (with co-corrector),with co-corrector,+++ (≥350)
same,EC50,[6],< 3 µM
same,Emax,without co-corrector,> 150%
COc1ncc(C(F)(F)F)cc1C1(C(=O)NS(=O)(=O)c2cccc3c2ccn3C)CC1 [II-18],EC50,[5],3 to 10 µM
same,Maximum % activity (with co-corrector),with co-corrector,+++ (≥350)
same,EC50,[6],< 3 µM
same,Emax,without co-corrector,> 150%
COc1ncc(C(F)(F)F)cc1C1(C(=O)NS(=O)(=O)c2cccc3ncc(C)n23)CC1 [II-19],EC50,[5],3 to 10 µM
same,Maximum % activity (with co-corrector),with co-corrector,+++ (≥350)
same,EC50,[6],3 to 10 µM
same,Emax,without co-corrector,50 to 150%
COc1ccc(C(C)C)cc1C1(C(=O)NS(=O)(=O)c2cccc3c2CCCN3)CCC1 [II-20],EC50,[5],3 to 10 µM
same,Maximum % activity (with co-corrector),with co-corrector,+++ (≥350)
same,EC50,[6],< 3 µM
same,Emax,without co-corrector,> 150%
COc1ccc(C2CCCC2)cc1C1(C(=O)NS(=O)(=O)c2cccc3c2CCCN3)CCC1 [II-21],EC50,[5],< 3 µM
same,Maximum % activity (with co-corrector),with co-corrector,+++ (≥350)
same,EC50,[6],< 3 µM
same,Emax,without co-corrector,> 150%
